Patent publication US20260347403A1, “FUNGICIDAL COMPOUND” (priority 2022, published 2026)
Read-outs that look alike come from different tables or passages of the source. Numbered stars: 1 amine (or outer) side, 2 acyl side, 3 side chain; on linkers, the order of the positions; unused ones are H or OH. Bridge positions count the residues as written; N and C are the ends. Square brackets hold non-standard residues; d marks the D form. Peptide text beside a SMILES is read from it. * marks the point of attachment. Tridecanoyl(12-Me) = CC(C)CCCCCCCCCCC(=O)*; X1 = NC(=O)CC(O)C(N[*:1])C(=O)[*:2]; NMeF = CN[CH](Cc1ccccc1)C(=O)O; NMeN = CN[CH](CC(N)=O)C(=O)O; X2 = CCC(C)CCCCCCCCCCC(=O)*

Key:
Format in all cases: cell-based
[1] = test system: Sclerotinia sclerotiorum; test: Liquid culture 96-well mixture assay with malonomicin, Sclerotinia sclerotiorum, 72 hrs; settings: concentrations in Table 8
Procedure: A stock solution for compound of Formula I(a) was produced in DMSO (max. 10 mg/ml). Malonomicin was produced according to Law et al, 2018 (Nature Catalys is |VOL 1|DECEMBER 2018|977-984). A stock solution of malonomicin was produced in water plus 0.025% Tween® 20.
Assays to test efficacy of mixtures of the lipopeptide compound of Formula I(a) in combination with malonomicin on the control of fungal pathogens in a liquid culture assay were designed for a 96well plate as outlined in table 1:
The 96 well plate design allows to compare disease control of the mixture with disease control of the respective single compound at the same rate.
A master plate with 10× concentrated solution of the compound stock solutions diluted in water plus 0.025% Tween® 20 was prepared. The concentration of DMSO (from the stock of compound of Formula (a)) and Tween® 20 was kept constant in all cells of the master plate. 10 μl was transferred from the master plate to a 96well test plate. The nutrient broth containing the fungal spores/mycelia fragments was then added to the test plate to give an end concentration of 1× for the tested compounds (as outlined in Table 8). The test plates were incubated in the dark at 24 °C and 96% rh. The inhibition of fungal growth was determined photometrically after ca 3 days, and percent fungal growth reduction relative to the untreated check was calculated.
Sclerotinia sclerotiorum (EPPO Code: SCLESC)
Mycelial fragments of the fungus prepared from a fresh liquid culture were directly mixed into nutrient broth (PDB: potato dextrose broth).

[2] = test system: Glomerella lagenarium; test: Liquid culture, Glomerella lagenarium (Colletotrichum lagenarium), Anthracnose, 3-4 days; settings: Colletotrichum orbiculare, read-out: % reduction fungal growth
Procedure: (§1) Mycelia fragments or conidia suspensions of a fungus, prepared either freshly from liquid cultures of the fungus or from cryogenic storage, were directly mixed into nutrient broth.
(§2) A stock solution for compound of Formula I(a) and Formula I(b) was produced in DMSO (max. 10 mg/ml), which was diluted with water plus 0.025% Tween®20 to produce a 10× concentrated sample and 10 μl of this solution was pipetted into a microtiter plate (96-well format). The nutrient broth containing the fungal spores/mycelia fragments was then added to give an end concentration of the tested compound. The test plates were incubated in the dark at 24 °C and 96% rh. The inhibition of fungal growth was determined photometrically after 2-7 days, depending on the pathosystem, and percent antifungal activity relative to the untreated check was calculated.
(§3) The effect of the test compound (Formula I(a), I(b) and Lipopeptin A) was tested against the following fungi under the conditions as outlined above and specifically herein below:
Glomerella lagenarium (Colletotrichum lagenarium)/Liquid Culture (Anthracnose)
Conidia of the fungus from cryogenic storage were directly mixed into nutrient broth (PDB potato dextrose broth). The inhibition of growth was measured photometrically 3-4 days after application.

[3] = test system: Zymoseptoria tritici; test: Liquid culture, Zymoseptoria tritici (Septoria tritici), Septoria leaf blotch, 4-5 days; settings: Zymoseptoria tritici, read-out: % reduction fungal growth
Procedure: as §1, §2, §3
Zymoseptoria tritici (Septoria tritici)/liquid culture (Septoria leaf blotch) Conidia of the fungus from cryogenic storage were directly mixed into nutrient broth (PDB potato dextrose broth). The inhibition of growth was determined photometrically 4-5 days after application.

[4] = test system: several phytopathogenic fungi; test: Liquid culture assays, summary over the fungi tested; settings: up to; Tables 2 and 3
Procedure: as §1, §2
The effect of the test compound (Formula I(a), I(b) and Lipopeptin A) was tested against the following fungi under the conditions as outlined above and specifically herein below: […]

| Structure (SMILES) | inhibition of growth at 0.41 ppm ([2]; Table 2) [%] | inhibition of growth at 1.2 ppm ([2]; Table 2) [%] | inhibition of growth at 3.7 ppm ([2]; Table 2) [%] | inhibition of growth at 11 ppm ([2]; Table 2) [%] | inhibition of growth at 33 ppm ([2]; Table 2) [%] | inhibition of growth at 100 ppm ([2]; Table 2) [%] | inhibition of growth at 0.41 ppm ([2]; Table 3) [%] | inhibition of growth at 1.2 ppm ([2]; Table 3) [%] | inhibition of growth at 3.7 ppm ([2]; Table 3) [%] | inhibition of growth at 11 ppm ([2]; Table 3) [%] | inhibition of growth at 33 ppm ([2]; Table 3) [%] | inhibition of growth at 100 ppm ([2]; Table 3) [%] | inhibition of growth at 0.41 ppm ([3]; Table 2) [%] | inhibition of growth at 1.2 ppm ([3]; Table 2) [%] | inhibition of growth at 3.7 ppm ([3]; Table 2) [%] | inhibition of growth at 11 ppm ([3]; Table 2) [%] | inhibition of growth at 33 ppm ([3]; Table 2) [%] | inhibition of growth at 100 ppm ([3]; Table 2) [%] | inhibition of growth at 0.41 ppm ([3]; Table 3) [%] | inhibition of growth at 1.2 ppm ([3]; Table 3) [%] | further results |
| --- | --- | --- | --- | --- | --- | --- | --- | --- | --- | --- | --- | --- | --- | --- | --- | --- | --- | --- | --- | --- | --- |
| CC(C)CCCCCCCCCCC(=O)NC1C(=O)NC(CC(=O)O)C(=O)NC(C(O)CC(N)=O)C(=O)NC(CO)C(=O)N(C)C(CC(N)=O)C(=O)N(C)C(Cc2ccccc2)C(=O)NC(CCC(N)=O)C(=O)NC(CCC(=O)O)C(=O)OC1C (stereo not shown) [Formula I(a)] ({Tridecanoyl(12-Me)}-TD[X1]S[NMeN][NMeF]QE; ester 1-C; configuration not given here) | 0 | 0 | 0 | 50 | 90 | 100 | 0 | 0 | 0 | 0 | 0 | 50 | 0 | 0 | 0 | 70 | 100 | 100 | 0 | 0 | control of fungal growth (% reduction of growth in the test well as compared to untreated check) ([1]; plate column (1): compound of Formula I(a) alone, dilution series lines A (highest) to G): 0%; inhibition of growth at 3.7 ppm ([3]; Table 3): 0%; inhibition of growth at 11 ppm ([3]; Table 3): 70%; inhibition of growth at 33 ppm ([3]; Table 3): 90%; inhibition of growth at 100 ppm ([3]; Table 3): 90%; control of phytopathogenic fungi [4]: up to 100% |
| CCC(C)CCCCCCCCCCC(=O)NC1C(=O)NC(CC(=O)O)C(=O)NC(C(O)CC(N)=O)C(=O)NC(CO)C(=O)N(C)C(CC(N)=O)C(=O)N(C)C(Cc2ccccc2)C(=O)NC(CCC(N)=O)C(=O)NC(CCC(=O)O)C(=O)OC1C (stereo not shown) [Formula I(b)] (X2-TD[X1]S[NMeN][NMeF]QE; ester 1-C; configuration not given here) | 0 | 0 | 0 | 0 | 0 | 0 | 0 | 0 | 0 | 0 | 0 | 0 | 0 | 0 | 0 | 50 | 70 | 70 | 0 | 0 | inhibition of growth at 3.7 ppm ([3]; Table 3): 0%; inhibition of growth at 11 ppm ([3]; Table 3): 90%; inhibition of growth at 33 ppm ([3]; Table 3): 90%; inhibition of growth at 100 ppm ([3]; Table 3): 90%; control of phytopathogenic fungi [4]: up to 100% |
| NC[C@@H]1NC(=O)C(C(=O)CC(NC(=O)[C@@H](N)CO)(C(=O)O)C(=O)O)=C1O [malonomicin, {[(2S)-2-amino-3-hydroxypropanoyl]amino}{2-[(5S)-5-(aminomethyl)-4-hydroxy-2-oxo-2,5-dihydro-1H-pyrrol-3-yl]-2-oxoethyl}malonic acid] | – | – | – | – | – | – | – | – | – | – | – | – | – | – | – | – | – | – | – | – | control of fungal growth (% reduction of growth in the test well as compared to untreated check) ([1]; plate column (2), highest malonomicin concentration, lines A-G with compound of Formula I(a) dilution series, line H malonomicin alone): 90%; control of fungal growth (% reduction of growth in the test well as compared to untreated check) ([1]; plate column (3) of malonomicin dilution series, lines A-G with compound of Formula I(a), line H malonomicin alone): 90%; control of fungal growth (% reduction of growth in the test well as compared to untreated check) ([1]; plate column (4) of malonomicin dilution series, lines A-G with compound of Formula I(a), line H malonomicin alone): 90%; control of fungal growth (% reduction of growth in the test well as compared to untreated check) ([1]; plate column (5) of malonomicin dilution series, lines A-G with compound of Formula I(a), line H malonomicin alone): 70%; control of fungal growth (% reduction of growth in the test well as compared to untreated check) ([1]; plate column (6) of malonomicin dilution series, lines A-G with compound of Formula I(a), line H malonomicin alone): 50%; control of fungal growth (% reduction of growth in the test well as compared to untreated check) ([1]; plate column (7) of malonomicin dilution series, lines A-G with compound of Formula I(a), line H malonomicin alone): 20%; control of fungal growth (% reduction of growth in the test well as compared to untreated check) ([1]; plate column (8) of malonomicin dilution series, lines A-G with compound of Formula I(a), line H malonomicin alone): 0%; control of fungal growth (% reduction of growth in the test well as compared to untreated check) ([1]; plate column (9) of malonomicin dilution series, lines A-G with compound of Formula I(a), line H malonomicin alone): 0%; control of fungal growth (% reduction of growth in the test well as compared to untreated check) ([1]; plate column (10) of malonomicin dilution series, lines A-G with compound of Formula I(a), line H malonomicin alone): 0%; control of fungal growth (% reduction of growth in the test well as compared to untreated check) ([1]; plate column (11), lowest malonomicin concentration, lines A-G with compound of Formula I(a), line H malonomicin alone): 0% |
